Active and inactive are the calls of the source.
Assays:
[1] = Counterscreen for activators of the function of SWI/SNF related, matrix associated, actin dependent regulator of chromatin, subfamily a, member 2 (SMARCA2, BRM): Luminescence-based cell-based high throughput dose response assay to identify non-selective compounds using the VP16 reporter assay.; format: functional
[2] = target: SWI/SNF-related matrix-associated actin-dependent regulator of chromatin subfamily A member 2 (Homo sapiens, UniProt P51531); assay: Luminescence-based cell-based high throughput dose response assay to identify activators of the function of SWI/SNF related, matrix associated, actin dependent regulator of chromatin, subfamily a, member 2 (SMARCA2, BRM).; format: functional
Sequence of SWI/SNF-related matrix-associated actin-dependent regulator of chromatin subfamily A member 2 (P51531 whole entry): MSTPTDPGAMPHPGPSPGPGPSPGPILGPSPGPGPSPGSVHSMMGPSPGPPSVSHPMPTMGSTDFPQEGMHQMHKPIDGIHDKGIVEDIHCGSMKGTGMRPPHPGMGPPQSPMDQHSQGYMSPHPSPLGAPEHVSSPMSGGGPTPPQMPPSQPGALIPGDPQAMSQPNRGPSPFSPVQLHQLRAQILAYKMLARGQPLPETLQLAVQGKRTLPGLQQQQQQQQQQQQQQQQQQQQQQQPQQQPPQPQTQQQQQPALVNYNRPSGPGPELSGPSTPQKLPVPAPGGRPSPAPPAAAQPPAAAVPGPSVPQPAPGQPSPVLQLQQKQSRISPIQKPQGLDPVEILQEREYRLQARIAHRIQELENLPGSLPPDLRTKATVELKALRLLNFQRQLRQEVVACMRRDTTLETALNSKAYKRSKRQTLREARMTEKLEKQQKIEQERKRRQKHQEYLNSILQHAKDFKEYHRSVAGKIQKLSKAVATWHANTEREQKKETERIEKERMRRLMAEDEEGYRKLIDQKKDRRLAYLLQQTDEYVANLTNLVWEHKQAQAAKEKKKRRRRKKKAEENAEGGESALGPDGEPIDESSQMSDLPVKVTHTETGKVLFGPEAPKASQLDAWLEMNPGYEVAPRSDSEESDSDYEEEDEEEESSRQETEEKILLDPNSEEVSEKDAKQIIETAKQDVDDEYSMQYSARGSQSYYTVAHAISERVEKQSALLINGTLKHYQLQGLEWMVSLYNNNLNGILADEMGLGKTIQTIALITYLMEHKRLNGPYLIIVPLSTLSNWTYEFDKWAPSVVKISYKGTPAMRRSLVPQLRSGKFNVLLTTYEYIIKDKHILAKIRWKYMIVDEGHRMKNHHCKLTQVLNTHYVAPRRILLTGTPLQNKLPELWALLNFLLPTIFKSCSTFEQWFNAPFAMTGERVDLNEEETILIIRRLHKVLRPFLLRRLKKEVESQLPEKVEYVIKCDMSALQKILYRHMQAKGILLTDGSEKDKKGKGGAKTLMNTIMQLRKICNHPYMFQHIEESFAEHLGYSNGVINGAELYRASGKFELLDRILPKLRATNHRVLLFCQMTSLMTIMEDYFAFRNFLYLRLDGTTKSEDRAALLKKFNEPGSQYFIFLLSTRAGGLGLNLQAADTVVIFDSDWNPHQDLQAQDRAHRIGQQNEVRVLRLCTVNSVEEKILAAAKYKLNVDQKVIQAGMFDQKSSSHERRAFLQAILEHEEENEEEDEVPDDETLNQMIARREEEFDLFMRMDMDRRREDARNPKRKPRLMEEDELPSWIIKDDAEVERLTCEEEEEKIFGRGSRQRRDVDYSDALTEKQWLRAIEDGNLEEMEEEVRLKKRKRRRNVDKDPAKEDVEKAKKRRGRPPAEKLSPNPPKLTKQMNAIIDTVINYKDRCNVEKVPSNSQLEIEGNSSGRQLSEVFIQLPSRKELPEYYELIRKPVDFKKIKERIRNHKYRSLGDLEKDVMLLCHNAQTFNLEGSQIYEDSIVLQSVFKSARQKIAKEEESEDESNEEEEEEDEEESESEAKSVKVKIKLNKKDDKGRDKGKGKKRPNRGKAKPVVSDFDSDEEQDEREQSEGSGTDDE

[3] = test system: HEK293; assay: cells; details: Homo sapiens
[4] = target: Beta-2 adrenergic receptor (Homo sapiens, UniProt P07550); assay: beta2AR agonists driving receptor internalization, dose response, cell-based, FAP fluorogen, flow cytometry, cherry pick 1 (AID 588763); format: functional
[5] = test system: HEK293; assay: cells; details: Homo sapiens; remark: listed apart in the source
[6] = control 3'UTR Renilla luciferase suppression, dose response, counter-screen for Shn3 inhibitor project, cell-based, Clone20-Shn3RL, cherry-picked (AID 624133); format: functional
[7] = cytotoxicity in HEK-293T cells, dose response, cytotoxicity control for TCR NF-kB inhibitor project, luminescence, T-cell screen hits (AID 489026); format: functional, cell-based;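 note: cells exposed to compound about 14 hours before the viability readout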
[8] = cells; format: functional, cell-based; details: HEK-CNG
[9] = target: T1, High affinity choline transporter 1 (Homo sapiens, UniProt Q9GZV3); assay: CHT inhibitors, dose response, cell-based, 5-point CRC, membrane potential dye (AID 504840); format: functional
T1 sequence (Q9GZV3 whole entry): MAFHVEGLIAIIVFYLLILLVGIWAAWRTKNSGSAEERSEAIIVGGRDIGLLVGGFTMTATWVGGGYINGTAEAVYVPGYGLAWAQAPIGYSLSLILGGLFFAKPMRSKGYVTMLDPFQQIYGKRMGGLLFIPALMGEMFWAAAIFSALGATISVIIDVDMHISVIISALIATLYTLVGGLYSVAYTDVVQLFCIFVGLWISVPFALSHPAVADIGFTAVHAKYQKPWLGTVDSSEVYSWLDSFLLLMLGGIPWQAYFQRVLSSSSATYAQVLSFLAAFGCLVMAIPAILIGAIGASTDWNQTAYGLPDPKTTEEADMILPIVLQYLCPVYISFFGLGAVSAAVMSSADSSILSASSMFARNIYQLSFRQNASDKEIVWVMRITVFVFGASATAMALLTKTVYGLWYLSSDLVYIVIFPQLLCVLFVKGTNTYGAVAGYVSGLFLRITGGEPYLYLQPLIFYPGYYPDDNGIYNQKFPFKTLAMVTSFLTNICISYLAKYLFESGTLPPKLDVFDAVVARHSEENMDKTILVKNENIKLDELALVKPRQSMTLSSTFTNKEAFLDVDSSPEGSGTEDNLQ

[10] = target: Protein Wnt-3a (Mus musculus, UniProt P27467); assay: Wnt3a-driven reporter signaling inhibition, dose response, selectivity assay for Gli-SUFU antagonist project, Wnt-LIGHT cells, luminescence (AID 651570); format: functional; details: read-out: IC50_Mean;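 note: Wnt-LIGHT reporter cells stimulated with conditioned medium from Wnt3a-producing cells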
Sequence of Protein Wnt-3a (P27467 whole entry): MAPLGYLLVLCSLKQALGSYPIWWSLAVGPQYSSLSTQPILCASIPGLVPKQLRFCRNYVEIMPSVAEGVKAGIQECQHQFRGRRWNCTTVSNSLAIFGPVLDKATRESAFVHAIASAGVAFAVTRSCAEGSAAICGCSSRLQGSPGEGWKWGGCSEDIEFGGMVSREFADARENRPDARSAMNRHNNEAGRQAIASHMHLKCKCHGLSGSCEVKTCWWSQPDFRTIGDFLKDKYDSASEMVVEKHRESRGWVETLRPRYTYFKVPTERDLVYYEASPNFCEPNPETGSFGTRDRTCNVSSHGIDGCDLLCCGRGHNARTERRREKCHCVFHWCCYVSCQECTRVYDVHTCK

[11] = target: Galanin receptor type 3 (Homo sapiens, UniProt O60755); assay: Fluorescence-based cell-based primary high throughput dose response assay to identify antagonists of the Galanin Receptor 3 (GalR3).; format: functional
Sequence of Galanin receptor type 3 (O60755 whole entry): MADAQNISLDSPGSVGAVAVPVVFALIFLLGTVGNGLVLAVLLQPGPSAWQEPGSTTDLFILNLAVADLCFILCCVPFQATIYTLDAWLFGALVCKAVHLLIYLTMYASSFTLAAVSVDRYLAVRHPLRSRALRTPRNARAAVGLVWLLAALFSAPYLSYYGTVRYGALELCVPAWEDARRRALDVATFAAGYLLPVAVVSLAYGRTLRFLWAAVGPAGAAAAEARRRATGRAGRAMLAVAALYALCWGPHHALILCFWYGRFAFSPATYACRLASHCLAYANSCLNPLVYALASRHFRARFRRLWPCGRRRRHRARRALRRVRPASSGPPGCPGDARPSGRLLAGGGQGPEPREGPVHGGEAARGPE

[12] = Shn3 3'UTR reporter inhibitors, dose response, cell-based, Clone20 osteoblasts, firefly luciferase, cherry-picked (AID 624132); format: functional;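 note: firefly luciferase luminescence from reporter carrying the Shn3 3'UTR in osteoblasts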
[13] = test system: INS1; assay: beta cell apoptosis inhibitors, cytokine rescue, dose response, luminescence, retest (AID 449756); format: functional, cell-based; details: Rattus norvegicus;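 note: cell death triggered by IL-1 beta plus TNF-alpha plus IFN-gamma mixture; protective hits raise ATP signal compared with cytokine alone wells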
[14] = target: T2, Scavenger receptor class B member 1 (Mus musculus, UniProt Q61009); assay: inhibitors of SR-BI dependent HDL uptake, dose response, ldlA[mSR-BI] CHO cells, fluorescence plate reader, dry powder, set 9 (AID 623880); format: functional, cell-based
T2 sequence (Q61009 whole entry): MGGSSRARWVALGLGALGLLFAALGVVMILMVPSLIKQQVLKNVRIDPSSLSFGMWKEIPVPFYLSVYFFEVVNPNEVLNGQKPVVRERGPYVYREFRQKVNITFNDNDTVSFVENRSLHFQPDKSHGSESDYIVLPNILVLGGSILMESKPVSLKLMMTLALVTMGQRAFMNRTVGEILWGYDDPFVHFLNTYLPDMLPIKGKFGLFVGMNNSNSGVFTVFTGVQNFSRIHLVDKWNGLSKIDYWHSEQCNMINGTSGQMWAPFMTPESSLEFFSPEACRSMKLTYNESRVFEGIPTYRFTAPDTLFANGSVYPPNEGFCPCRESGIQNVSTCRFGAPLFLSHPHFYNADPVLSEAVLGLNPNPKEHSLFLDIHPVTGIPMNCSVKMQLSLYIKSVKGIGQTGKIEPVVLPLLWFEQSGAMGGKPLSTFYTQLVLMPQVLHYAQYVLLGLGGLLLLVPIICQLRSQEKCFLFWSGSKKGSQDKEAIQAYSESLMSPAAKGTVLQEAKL

[15] = target: T2, Scavenger receptor class B member 1; assay: inhibitors of SR-BI-mediated HDL uptake, dose response, cell-based, ldlA[mSR-BI] CHO, DiI fluorescence, dry powder, set 10 (AID 624029); format: functional
[16] = target: T3, Trace amine-associated receptor 1 (Homo sapiens, UniProt Q96RJ0); assay: Fluorescence-based cell-based high throughput dose response assay to identify agonists of the human trace amine associated receptor 1 (TAAR1).; format: functional
T3 sequence (Q96RJ0 whole entry): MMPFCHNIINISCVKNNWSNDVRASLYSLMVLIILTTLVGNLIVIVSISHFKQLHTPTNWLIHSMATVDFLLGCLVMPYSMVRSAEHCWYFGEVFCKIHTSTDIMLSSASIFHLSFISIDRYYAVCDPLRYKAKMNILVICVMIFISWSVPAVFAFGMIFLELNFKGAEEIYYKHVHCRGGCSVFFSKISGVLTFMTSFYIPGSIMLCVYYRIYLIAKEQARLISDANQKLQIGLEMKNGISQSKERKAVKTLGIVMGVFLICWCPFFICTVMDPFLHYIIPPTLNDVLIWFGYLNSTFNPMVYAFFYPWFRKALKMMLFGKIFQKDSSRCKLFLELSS

[17] = cells; format: functional, cell-based
[18] = cells; format: functional, cell-based; remark: listed apart in the source
[19] = target: T3, Trace amine-associated receptor 1; assay: Counterscreen for agonists of the human trace amine associated receptor 1 (hTAAR1): Fluorescence-based cell-based high throughput dose response assay to identify hTAAR1 agonist that also desensitize TAAR1 receptor response.; format: functional
[20] = target: COUP transcription factor 2 (Homo sapiens, UniProt P24468); assay: Luminescence-based cell-based high throughput dose response assay to identify inhibitors of COUP-TFII (NR2F2).; format: functional;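 note: HEK293 cells transiently cotransfected with COUP-TFII expression vector and reporter; luciferase reporter luminescence driven by COUP-TFII from the pX2-168 reporter plasmid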
Sequence of COUP transcription factor 2 (P24468 whole entry): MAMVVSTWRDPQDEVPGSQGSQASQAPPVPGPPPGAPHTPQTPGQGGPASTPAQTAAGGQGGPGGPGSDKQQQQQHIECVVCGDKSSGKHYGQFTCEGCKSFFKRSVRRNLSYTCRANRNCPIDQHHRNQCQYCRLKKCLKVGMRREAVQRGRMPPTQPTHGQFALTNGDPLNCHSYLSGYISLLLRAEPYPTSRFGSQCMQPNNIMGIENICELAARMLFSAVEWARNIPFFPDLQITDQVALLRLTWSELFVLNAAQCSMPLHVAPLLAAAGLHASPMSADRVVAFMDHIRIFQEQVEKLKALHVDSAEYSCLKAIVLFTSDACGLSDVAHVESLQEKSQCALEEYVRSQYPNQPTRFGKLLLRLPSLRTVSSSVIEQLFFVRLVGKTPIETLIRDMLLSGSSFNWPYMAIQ

[21] = target: Fructose-bisphosphate aldolase (Mycobacterium tuberculosis, UniProt P9WQA3); assay: Fluorescence-based biochemical high throughput dose response assay for inhibitors of the fructose-bisphosphate aldolase (FBA) of M. tuberculosis.; format: functional
Sequence of Fructose-bisphosphate aldolase (P9WQA3 whole entry): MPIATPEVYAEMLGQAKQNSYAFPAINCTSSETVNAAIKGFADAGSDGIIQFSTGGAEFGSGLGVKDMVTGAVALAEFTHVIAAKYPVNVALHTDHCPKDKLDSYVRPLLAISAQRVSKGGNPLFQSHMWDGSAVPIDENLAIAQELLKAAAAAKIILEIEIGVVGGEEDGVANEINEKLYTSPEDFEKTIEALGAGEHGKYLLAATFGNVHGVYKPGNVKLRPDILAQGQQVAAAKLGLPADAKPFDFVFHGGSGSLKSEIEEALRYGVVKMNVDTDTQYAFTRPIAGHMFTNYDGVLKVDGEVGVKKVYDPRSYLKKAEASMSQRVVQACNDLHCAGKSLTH

[22] = target: Beta-galactosidase (Escherichia coli, UniProt Q8VNN2); assay: Dose response counterscreen for EBI2 assay utilizing the enzyme, b-galactosidase.; format: functional
[23] = target: ATP-dependent translocase ABCB1 (Homo sapiens, UniProt P08183); assay: ABCB1 efflux inhibition concentration-response, dose response, Jurkat-DNR cells, JC-1, flow cytometry, follow-up (AID 489002); format: functional
Sequence of ATP-dependent translocase ABCB1 (P08183 whole entry): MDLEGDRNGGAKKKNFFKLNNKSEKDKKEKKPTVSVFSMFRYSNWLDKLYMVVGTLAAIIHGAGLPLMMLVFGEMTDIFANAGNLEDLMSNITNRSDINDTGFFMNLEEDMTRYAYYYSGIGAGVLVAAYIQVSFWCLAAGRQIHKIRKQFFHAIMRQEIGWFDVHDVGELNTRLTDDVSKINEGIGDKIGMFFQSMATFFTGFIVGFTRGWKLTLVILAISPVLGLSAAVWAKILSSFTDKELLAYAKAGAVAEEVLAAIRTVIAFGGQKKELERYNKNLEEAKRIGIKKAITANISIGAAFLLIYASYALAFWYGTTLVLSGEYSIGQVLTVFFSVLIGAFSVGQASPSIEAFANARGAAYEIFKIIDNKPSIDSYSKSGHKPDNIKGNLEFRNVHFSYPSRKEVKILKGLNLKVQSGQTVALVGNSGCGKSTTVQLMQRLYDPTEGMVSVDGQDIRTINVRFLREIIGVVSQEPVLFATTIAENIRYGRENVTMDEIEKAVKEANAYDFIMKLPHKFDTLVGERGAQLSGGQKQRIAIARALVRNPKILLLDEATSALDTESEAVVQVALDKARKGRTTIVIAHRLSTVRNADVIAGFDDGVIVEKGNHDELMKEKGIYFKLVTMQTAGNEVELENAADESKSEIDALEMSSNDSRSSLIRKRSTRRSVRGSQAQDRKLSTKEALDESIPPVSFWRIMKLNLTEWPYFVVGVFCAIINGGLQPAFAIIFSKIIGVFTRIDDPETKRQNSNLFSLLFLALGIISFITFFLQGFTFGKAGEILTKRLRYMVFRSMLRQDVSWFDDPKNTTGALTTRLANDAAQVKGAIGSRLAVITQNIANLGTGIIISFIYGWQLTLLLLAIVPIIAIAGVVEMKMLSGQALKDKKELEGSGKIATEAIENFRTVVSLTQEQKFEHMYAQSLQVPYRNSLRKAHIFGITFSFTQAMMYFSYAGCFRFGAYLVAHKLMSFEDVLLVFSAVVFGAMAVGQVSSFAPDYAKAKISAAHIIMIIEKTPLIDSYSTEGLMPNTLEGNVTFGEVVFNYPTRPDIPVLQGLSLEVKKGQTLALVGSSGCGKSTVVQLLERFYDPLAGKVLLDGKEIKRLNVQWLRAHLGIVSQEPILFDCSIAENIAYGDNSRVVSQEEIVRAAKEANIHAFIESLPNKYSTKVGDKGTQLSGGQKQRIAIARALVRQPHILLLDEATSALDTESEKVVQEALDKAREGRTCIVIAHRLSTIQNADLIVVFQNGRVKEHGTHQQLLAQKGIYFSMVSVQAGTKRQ

[24] = NIH3T3 fibroblast cytotoxicity, dose response, cytotoxicity control for PglD inhibitor project, cell-based, CellTiter-Glo luminescence, dry powder (AID 652044); format: functional

CC1(C)Cc2c(c(-c3ccco3)nc3sc4c(NCCCO)ncnc4c23)CO1
EC50 [1]: > 91.2 µM (inactive) | EC50 [2]: > 91.2 µM (inactive) | EC50 [3]: > 59.6 µM (inactive) | EC50 [4]: 0.0207 µM (active) | EC50 [5]: > 59.6 µM (inactive)

CCOC(=O)CC1CCCCN1C(=O)c1cc(COc2cccc3cnccc23)on1 (centres undefined)
AC50 [6]: 0.67 µM (active) | IC50 [7]: > 80 µM (inactive) | EC50 [8]: > 29.9 µM (inactive) | IC50 [9]: 11 µM (active) | IC50 [10]: 0.777 µM (active) | IC50 [11]: 0.448 µM (active) | AC50 [12]: 0.713 µM (active) | AC50 [13]: 5.89 µM (active)

COc1ccc2c(c1)CC(C1(O)C(=O)N(C)c3ccccc31)C2=O (centres undefined)
AC50 [14]: > 70 µM (inactive) | AC50 [15]: > 70 µM (inactive)

Cc1cccc(CSC(=N)N)c1
EC50 [16]: 1.21 µM (active) | IC50 [17]: > 30 µM (inactive) | EC50 [18]: > 30 µM (inactive) | IC50 [19]: 16.9 µM (inactive)

Cc1ccc(-n2nc3c(=O)n(C(C)C(=O)NCCCc4ccccc4)nc(C)c3c2C)cc1 (centres undefined)
IC50 [20]: 11.7 µM (inactive)

CN(C)c1nc(OCc2ccccc2)c2ncc(=O)[nH]c2n1
IC50 [21]: 2.82 µM (active)

COc1ccc(N2CCN(C(=O)c3cc(-c4ccc(F)cc4)[nH]c3C)CC2)cc1
IC50 [22]: > 80 µM (inactive)

CC1CN(C(=O)c2ccoc2)CCN1c1cc(-c2ccco2)nc2cc(-c3ccccc3)nn12 (centres undefined)
EC50 [23]: 0.0002986 µM

C[C@@H]1CN([C@@H](C)CO)C(=O)c2cc(NC(=O)Nc3ccc(F)cc3)ccc2O[C@@H]1CN(C)CC1CCCCC1
AC50 [24]: 43.4 µM (active)
